{"source": "paper PMC11446596", "about": "(Critical Care Explorations, 2024)", "key": {"[1]": {"conditions": "median / average of model-predicted half-life; PICU children"}, "[2]": {"set-up": "species or system human", "conditions": "for Trough Vancomycin Concentration achieving AUC24/MIC = 400: regression equation"}, "[3]": {"conditions": "critically ill children; cited from earlier work"}, "[4]": {"conditions": "AUC24 regression equation, 365 troughs, 238 subjects"}}, "note": "Like-named read-outs stand apart in the source and are kept apart here."}
{"molecule": "CN[C@H](CC(C)C)C(=O)N[C@H]1C(=O)N[C@@H](CC(N)=O)C(=O)N[C@H]2C(=O)N[C@H]3C(=O)N[C@H](C(=O)N[C@H](C(=O)O)c4cc(O)cc(O)c4-c4cc3ccc4O)[C@H](O)c3ccc(c(Cl)c3)Oc3cc2cc(c3O[C@@H]2O[C@H](CO)[C@@H](O)[C@H](O)[C@H]2O[C@H]2C[C@](C)(N)[C@H](O)[C@H](C)O2)Oc2ccc(cc2Cl)[C@H]1O", "note": "[vancomycin]", "values": [{"measurement": "half-life (model-predicted, terminal)", "setting": "[1]", "result": 6, "unit": "h"}, {"measurement": "Trough Vancomycin Concentration achieving AUC24/MIC = 400", "setting": "[2]; 15 mg/kg q6h, body weight 10 kg, MIC = 0.5 μg/mL", "result": 1.8, "unit": "µg/mL"}, {"measurement": "Trough Vancomycin Concentration achieving AUC24/MIC = 400", "setting": "[2]; 15 mg/kg q6h, body weight 10 kg, MIC = 1 μg/mL", "result": 7.4, "unit": "µg/mL"}, {"measurement": "Trough Vancomycin Concentration achieving AUC24/MIC = 400", "setting": "[2]; 15 mg/kg q6h, body weight 10 kg, MIC = 2 μg/mL", "result": 29.9, "unit": "µg/mL"}, {"measurement": "Trough Vancomycin Concentration achieving AUC24/MIC = 400", "setting": "[2]; 15 mg/kg q6h, body weight 20 kg, MIC = 0.5 μg/mL", "result": 1.7, "unit": "µg/mL"}, {"measurement": "Trough Vancomycin Concentration achieving AUC24/MIC = 400", "setting": "[2]; 15 mg/kg q6h, body weight 20 kg, MIC = 1 μg/mL", "result": 6.9, "unit": "µg/mL"}, {"measurement": "Trough Vancomycin Concentration achieving AUC24/MIC = 400", "setting": "[2]; 15 mg/kg q6h, body weight 20 kg, MIC = 2 μg/mL", "result": 28.0, "unit": "µg/mL"}, {"measurement": "Trough Vancomycin Concentration achieving AUC24/MIC = 400", "setting": "[2]; 15 mg/kg q6h, body weight 40 kg, MIC = 0.5 μg/mL", "result": 1.5, "unit": "µg/mL"}, {"measurement": "Trough Vancomycin Concentration achieving AUC24/MIC = 400", "setting": "[2]; 15 mg/kg q6h, body weight 40 kg, MIC = 1 μg/mL", "result": 6.1, "unit": "µg/mL"}, {"measurement": "Trough Vancomycin Concentration achieving AUC24/MIC = 400", "setting": "[2]; 15 mg/kg q6h, body weight 40 kg, MIC = 2 μg/mL", "result": 24.6, "unit": "µg/mL"}, {"measurement": "Trough Vancomycin Concentration achieving AUC24/MIC = 400", "setting": "[2]; 15 mg/kg q8h, body weight 10 kg, MIC = 0.5 μg/mL", "result": 2.5, "unit": "µg/mL"}, {"measurement": "Trough Vancomycin Concentration achieving AUC24/MIC = 400", "setting": "[2]; 15 mg/kg q8h, body weight 10 kg, MIC = 1 μg/mL", "result": 10.0, "unit": "µg/mL"}, {"measurement": "Trough Vancomycin Concentration achieving AUC24/MIC = 400", "setting": "[2]; 15 mg/kg q8h, body weight 10 kg, MIC = 2 μg/mL", "result": 40.7, "unit": "µg/mL"}, {"measurement": "Trough Vancomycin Concentration achieving AUC24/MIC = 400", "setting": "[2]; 15 mg/kg q8h, body weight 20 kg, MIC = 0.5 μg/mL", "result": 2.3, "unit": "µg/mL"}, {"measurement": "Trough Vancomycin Concentration achieving AUC24/MIC = 400", "setting": "[2]; 15 mg/kg q8h, body weight 20 kg, MIC = 1 μg/mL", "result": 9.3, "unit": "µg/mL"}, {"measurement": "Trough Vancomycin Concentration achieving AUC24/MIC = 400", "setting": "[2]; 15 mg/kg q8h, body weight 20 kg, MIC = 2 μg/mL", "result": 37.6, "unit": "µg/mL"}, {"measurement": "Trough Vancomycin Concentration achieving AUC24/MIC = 400", "setting": "[2]; 15 mg/kg q8h, body weight 40 kg, MIC = 0.5 μg/mL", "result": 2.0, "unit": "µg/mL"}, {"measurement": "Trough Vancomycin Concentration achieving AUC24/MIC = 400", "setting": "[2]; 15 mg/kg q8h, body weight 40 kg, MIC = 1 μg/mL", "result": 8.0, "unit": "µg/mL"}, {"measurement": "Trough Vancomycin Concentration achieving AUC24/MIC = 400", "setting": "[2]; 15 mg/kg q8h, body weight 40 kg, MIC = 2 μg/mL", "result": 32.4, "unit": "µg/mL"}, {"measurement": "Trough Vancomycin Concentration achieving AUC24/MIC = 400", "setting": "[2]; 20 mg/kg q6h, body weight 10 kg, MIC = 0.5 μg/mL", "result": 1.8, "unit": "µg/mL"}, {"measurement": "Trough Vancomycin Concentration achieving AUC24/MIC = 400", "setting": "[2]; 20 mg/kg q6h, body weight 10 kg, MIC = 1 μg/mL", "result": 7.2, "unit": "µg/mL"}, {"measurement": "Trough Vancomycin Concentration achieving AUC24/MIC = 400", "setting": "[2]; 20 mg/kg q6h, body weight 10 kg, MIC = 2 μg/mL", "result": 29.3, "unit": "µg/mL"}, {"measurement": "Trough Vancomycin Concentration achieving AUC24/MIC = 400", "setting": "[2]; 20 mg/kg q6h, body weight 20 kg, MIC = 0.5 μg/mL", "result": 1.6, "unit": "µg/mL"}, {"measurement": "Trough Vancomycin Concentration achieving AUC24/MIC = 400", "setting": "[2]; 20 mg/kg q6h, body weight 20 kg, MIC = 1 μg/mL", "result": 6.6, "unit": "µg/mL"}, {"measurement": "Trough Vancomycin Concentration achieving AUC24/MIC = 400", "setting": "[2]; 20 mg/kg q6h, body weight 20 kg, MIC = 2 μg/mL", "result": 26.8, "unit": "µg/mL"}, {"measurement": "Trough Vancomycin Concentration achieving AUC24/MIC = 400", "setting": "[2]; 20 mg/kg q6h, body weight 40 kg, MIC = 0.5 μg/mL", "result": 1.4, "unit": "µg/mL"}, {"measurement": "Trough Vancomycin Concentration achieving AUC24/MIC = 400", "setting": "[2]; 20 mg/kg q6h, body weight 40 kg, MIC = 1 μg/mL", "result": 5.6, "unit": "µg/mL"}, {"measurement": "Trough Vancomycin Concentration achieving AUC24/MIC = 400", "setting": "[2]; 20 mg/kg q6h, body weight 40 kg, MIC = 2 μg/mL", "result": 22.6, "unit": "µg/mL"}, {"measurement": "Trough Vancomycin Concentration achieving AUC24/MIC = 400", "setting": "[2]; 30 mg/kg q8h, body weight 10 kg, MIC = 0.5 μg/mL", "result": 2.3, "unit": "µg/mL"}, {"measurement": "Trough Vancomycin Concentration achieving AUC24/MIC = 400", "setting": "[2]; 30 mg/kg q8h, body weight 10 kg, MIC = 1 μg/mL", "result": 9.3, "unit": "µg/mL"}, {"measurement": "Trough Vancomycin Concentration achieving AUC24/MIC = 400", "setting": "[2]; 30 mg/kg q8h, body weight 10 kg, MIC = 2 μg/mL", "result": 37.6, "unit": "µg/mL"}, {"measurement": "Trough Vancomycin Concentration achieving AUC24/MIC = 400", "setting": "[2]; 30 mg/kg q8h, body weight 20 kg, MIC = 0.5 μg/mL", "result": 2.0, "unit": "µg/mL"}, {"measurement": "Trough Vancomycin Concentration achieving AUC24/MIC = 400", "setting": "[2]; 30 mg/kg q8h, body weight 20 kg, MIC = 1 μg/mL", "result": 8.0, "unit": "µg/mL"}, {"measurement": "Trough Vancomycin Concentration achieving AUC24/MIC = 400", "setting": "[2]; 30 mg/kg q8h, body weight 20 kg, MIC = 2 μg/mL", "result": 32.4, "unit": "µg/mL"}, {"measurement": "Trough Vancomycin Concentration achieving AUC24/MIC = 400", "setting": "[2]; 30 mg/kg q8h, body weight 40 kg, MIC = 0.5 μg/mL", "result": 1.5, "unit": "µg/mL"}, {"measurement": "Trough Vancomycin Concentration achieving AUC24/MIC = 400", "setting": "[2]; 30 mg/kg q8h, body weight 40 kg, MIC = 1 μg/mL", "result": 6.1, "unit": "µg/mL"}, {"measurement": "Trough Vancomycin Concentration achieving AUC24/MIC = 400", "setting": "[2]; 30 mg/kg q8h, body weight 40 kg, MIC = 2 μg/mL", "result": 24.7, "unit": "µg/mL"}, {"measurement": "Exponent of trough concentration", "setting": "[2]; AUC24 regression equation, (Ctr/7)^x, 365 troughs, 238 subjects", "result": 0.495}, {"measurement": "Additive shift for dose frequency < 8 hours", "setting": "[2]; [4]", "result": 54.9}, {"measurement": "Slope of (DOSE [mg] - 500)", "setting": "[2]; [4]", "result": 0.0894}, {"measurement": "Vc reported by Downes et al", "setting": "[3]", "result": 2.59, "unit": "L"}, {"measurement": "Vp reported by Downes et al", "setting": "[3]", "result": 5.74, "unit": "L"}]}
